Key:
[1] = biological target: Proto-oncogene tyrosine-protein kinase Src (Homo sapiens, UniProt P12931, C277S/C483S); assay: Inhibition of c-Src C277S, C483S, […] mutant (unknown origin)
[2] = biological target: Tyrosine-protein kinase HCK (Homo sapiens, UniProt P08631); assay: Inhibition of Hck (unknown origin)
[3] = biological target: Tyrosine-protein kinase ABL1 (Homo sapiens, UniProt P00519); assay: Inhibition of c-Abl (unknown origin)

Ki [1] [µM]	Ki [2] [µM]	Ki [3] [µM]	Structure (SMILES)
0.2	–	–	O=C(CCS)Nc1cccc(Nc2nccc(Nc3cc(C4CC4)[nH]n3)n2)c1
–	> 1250	> 1250	C=CC(=O)N1CCCC1c1ccco1 (stereo not drawn)
